Holding throughout (assay): in-line probing
For test [1], the system named is 53 tauA (RNA, riboswitch) GGAGAGUGAGUAGAAGCGGUCAGUGCAGGCAGCUGCGCGGGACAUUGCUCAGCAA
Particulars: 100 mM KCl, 20 mM MgCl2, 100 mM Tris-HCl pH 8.3, 19°C; for binding: tested up to 1 mM, 53 or 68 tauA construct not specified; for KD: apparent.

The subject of test [2] is 68 tauA M3 (G6C, A7U) (RNA, riboswitch) GGAGAGUCUGUAGAAGCGGUCAGUGCAGGCAGCUGCGCGGGACAUUGCUCAGCAA
Particulars: 100 mM KCl, 20 mM MgCl2; 100 mM Tris-HCl pH 8.3, 19°C.

Test [3] has as its system 68 tauA (RNA, riboswitch) GGAGAGUGAGUAGAAGCGGUCAGUGCAGGCAGCUGCGCGGGACAUUGCUCAGCAACCAUUUCGCGGUUCA
The settings on record: 100 mM KCl, 20 mM MgCl2; 100 mM Tris-HCl pH 8.3, 19°C; qualitative, wild type compared with mutants.

The subject of test [4] is 68 tauA M2 (G38C) (RNA, riboswitch) GGAGAGUGAGUAGAAGCGGUCAGUGCAGGCAGCUGCGCGCGACAUUGCUCAGCAACCAUUUCGCGGUUCA
The settings on record: 100 mM KCl, 20 mM MgCl2, 100 mM Tris-HCl pH 8.3, 19°C.

For test [5], the system named is 68 tauA M1 (A12U) (RNA, riboswitch) GGAGAGUGAGUAGUAGCGGUCAGUGCAGGCAGCUGCGCGGGACAUUGCUCAGCAACCAUUUCGCGGUUCA
The settings on record: 100 mM KCl, 20 mM MgCl2, 100 mM Tris-HCl pH 8.3, 19°C.

Six compounds from article PMC7373994 (2020) can be followed below.

On to `Cn1c(=O)[nH]c2c(=O)[nH]c(=O)[nH]c21`, for which, in test [1], the binding entry was “no”.

Regarding `Cn1c(=O)[nH]c2[nH]c(=O)[nH]c(=O)c21`, in test [1], the binding result was “no”.

On to `Cn1c(=O)[nH]c(=O)c2[nH]c(=O)[nH]c21`, for which the binding entry in test [1] is “no”.

Consider `O=c1[nH]c(=O)c2[nH]cnc2[nH]1`, for which the KD in test [1] (36 h, two repeats) was ~ 3.7 µM. Also, the binding entry in test [2] was “no”; in test [3], “yes”; in test [4] (artifact modulation at highest concentration) it was “no”; in test [5], “no”.

As to `O=c1[nH]c(=O)c2[nH]c(=O)[nH]c2[nH]1`, in test [1] (Figure S2C legend prints 4.3 µM instead), the KD is ~ 25 µM. For the same compound, the binding entry in test [4] (tested up to 1000 µM) and in test [5] (tested up to 1000 µM) was “no” in each case.

Consider `O=c1[nH]cnc2c1ncn2[C@@H]1O[C@H](CO)[C@@H](O)[C@H]1O`, for which, in test [1], the binding result was “no”.
